# Results published in US20120172344A1, “INSULIN-PRODUCING CELL INDUCER, GLUCOSE INTAKE ENHANCER, AND THERAPEUTIC AGENT FOR DIABETES OR DIABETES COMPLICATIONS” (KYUSHU UNIVERSITY, NATIONAL UNIVERSITY CORPORATION, priority 2009, published 2012).
# System: AKT and Glut4
# Experiment: Experimental Example 3: intramuscular expression of AKT and Glut4 (western blot, immunostaining)
# Type: in vivo, mouse
# Description: Primary antibodies: Anti-insulin antibody (dilution rate 1:500; DAKO), anti-glucagon antibody (dilution rate 1:500; Linco Research Inc.), anti-DBA antibody (dilution rate 1:300; Vector Laboratories), anti-Pdx-1 antibody (dilution rate 1:1000; kindly provided by Chris V. E. Wright, Vanderbilt University), anti-collagen type IV antibody (dilution rate 1:250; PROGEN Biotechnik), and anti-Glut 4 antibody (dilution rate 1:1000; Chemicon).
# The primary antibodies were detected by immunofluorescence labeling using secondary antibodies conjugated with Alexa 488 or Alexa 568 (1:200; Molecular Probes); third antibody conjugated with biotin-labeled secondary antibodies and streptavidin Alexa 488 or Alexa 568 (1:800; Vector Laboratories); or by an immunoperoxidase staining method using biotin-labeled secondary antibodies. Staining was visualized with diaminobenzidine. The sections were counterstained with hematoxylin. Images were captured on a BZ9000 microscope (Keyence), or in the confocal mode on an LSM 510 META confocal microscope (Carl Zeiss). Immunofluorescence intensity was measured in random fields (n=30/section) using LSM Zeiss software, and the result was expressed as average pixel intensity.
# Mice were sacrificed, and the EDL, tibialis anterior, and gastrocnemius muscles were removed and snap-frozen in liquid nitrogen. […]
# Protein levels were quantified using NIH Image. […]
smiles,measurement,setting,value
"C[C@]12CC[C@@H]3c4ccc(O)cc4CC[C@H]3[C@@H]1CC[C@@H]2O [estradiol, 17β-estradiol]",glucose transporter (Glut4) in muscle cells,Tg mice in Tx-E group,increased
same,expression of intramuscular AKT and Glut4,"Tg mice, Tx + 17β-estradiol pellet s.c.",upregulates
